In EP3079693B1 (priority 2013, dated 2015):

How the values were obtained:
[1] = test system: constitutive gene expression; test: Counter screen: separate reporter system with cell death-activated reporter construct (constitutive gene expression); settings: for observed toxicity or efficacy in either assay tested: antiviral and counterscreen assay; for toxicity in antiviral and counterscreen assays: at 50uM, both antiviral and counterscreen assay
[2] = molecular target: influenza A RNA-dependent RNA polymerase (Influenza A virus, UniProt P03428+P03431+P03433); test: cell-based

## COc1ccc(-c2cc3nc4c(c(NCc5ccccc5F)n3n2)CCCC4)cc1 [A0529, N-(2-fluorobenzyl)-2-(4-methoxyphenyl)-5,6,7,8-tetrahydropyrazolo[5,1-b]quinazolin-9-amine]
[1]
  observed toxicity or efficacy in either assay tested: >50 µM (no observed toxicity or efficacy in either assay tested)
[2]
  IC50: > 50 µM

## Cc1cc(NCC(O)c2cccc(O)c2)n2nc(-c3cccc(F)c3)cc2n1 (stereo not drawn) [A0532, 3-(2-(2-(3-fluorophenyl)-5-methylpyrazolo[1,5-a]pyrimidin-7-ylamino)-1-hydroxyethyl)phenol]
[1]
  observed toxicity or efficacy in either assay tested: >50 µM (no observed toxicity or efficacy in either assay tested)
[2]
  IC50: > 50 µM

## CCOc1ccc(-c2cc3c(SCc4cccc(C)c4)nccn3n2)cc1 [A0552, 2-(4-ethoxyphenyl)-4-(3-methylbenzylthio)pyrazolo[1,5-a]pyrazine]
[1]
  observed toxicity or efficacy in either assay tested: >50 µM (no observed toxicity or efficacy in either assay tested)
[2]
  IC50: > 50 µM

## CCc1c(C)nc2cc(-c3ccc(OC)c(OC)c3)nn2c1NCCc1ccc(OC)c(OC)c1 [A0438, N-(3,4-dimethoxyphenethyl)-2-(3,4-dimethoxyphenyl)-6-ethyl-5-methylpyrazolo[1,5-a]pyrimidin-7-amine]
[1]
  toxicity in antiviral and counterscreen assays: >10uM (toxic to both antiviral and counterscreen at 50uM)
[2]
  IC50: > 10 µM

## COc1ccc(-c2cc3nc(C)c(C)c(N4CCCC4)n3n2)cc1OC [A0443, 2-(3,4-dimethoxyphenyl)-5,6-dimethyl-7-(pyrrolidin-1-yl)pyrazolo[1,5-a]pyrimidine]
[1]
  observed toxicity or efficacy in either assay tested: >50 µM (no observed toxicity or efficacy in either assay tested)
[2]
  IC50: > 50 µM

## COc1cc(OC)cc(-c2cc3nc(C)cc(NCC(C)c4ccccc4)n3n2)c1 (stereo not drawn) [A0525, 2-(3,5-dimethoxyphenyl)-5-methyl-N-(2-phenylpropyl)pyrazolo[1,5-a]pyrimidin-7-amine]
[1]
  observed toxicity or efficacy in either assay tested: >50 µM (no observed toxicity or efficacy in either assay tested)
[2]
  IC50: > 50 µM

## COc1ccc(-c2cc3nc(C)cc(NCc4ccccc4)n3n2)cc1 [A0548, N-benzyl-2-(4-methoxyphenyl)-5-methylpyrazolo[1,5-a]pyrimidin-7-amine]
[1]
  observed toxicity or efficacy in either assay tested: >50 µM (no observed toxicity or efficacy in either assay tested)
[2]
  IC50: > 50 µM

## COc1ccc(-c2cc3c(=O)[nH]nc(SCc4ccccc4Cl)n3n2)cc1OC [A0553, 7-(2-chlorobenzylthio)-2-(3,4-dimethoxyphenyl)pyrazolo[1,5-d][1,2,4]triazin-4(5H)-one]
[1]
  observed toxicity or efficacy in either assay tested: >50 µM (no observed toxicity or efficacy in either assay tested)
[2]
  IC50: > 50 µM

## Clc1ccc(-c2cc3nc4c(c(NCCc5ccccn5)n3n2)CCCC4)cc1 [A0442, 2-(4-chlorophenyl)-N-(2-(pyridin-2-yl)ethyl)-5,6,7,8-tetrahydropyrazolo[5,1-b]quinazolin-9-amine]
[1]
  toxicity in antiviral and counterscreen assays: >10uM (toxic to both antiviral and counterscreen at 50uM)
[2]
  IC50: > 10 µM

## Cc1ccc(-c2cc3nc4c(c(NCCc5ccccn5)n3n2)CCC4)cc1 [A0437, N-(2-(pyridin-2-yl)ethyl)-2-p-tolyl-6,7-dihydro-5H-cyclopenta[d]pyrazolo[1,5-a]pyrimidin-8-amine]
[1]
  observed toxicity or efficacy in either assay tested: >50 µM (no observed toxicity or efficacy in either assay tested)
[2]
  IC50: > 50 µM

## COc1ccc(-c2cc3nc4c(c(NCCc5cccnc5)n3n2)CCC4)cc1OC [A0444, 2-(3,4-dimethoxyphenyl)-N-(2-(pyridin-3-yl)ethyl)-6,7-dihydro-5H-cyclopenta[d]pyrazolo[1,5-a]pyrimidin-8-amine]
[1]
  toxicity in antiviral and counterscreen assays: >10uM (toxic to both antiviral and counterscreen at 50uM)
[2]
  IC50: > 10 µM

## Fc1ccc(-c2cc3nc4c(c(NCCc5ccccn5)n3n2)CCCC4)cc1 [A0441, 2-(4-fluorophenyl)-N-(2-(pyridin-2-yl)ethyl)-5,6,7,8-tetrahydropyrazolo[5,1-b]quinazolin-9-amine]
[1]
  toxicity in antiviral and counterscreen assays: >10uM (toxic to both antiviral and counterscreen at 50uM)
[2]
  IC50: > 10 µM
